Data from US20210401710A1, “AZOXYSTROBIN EFFICACY IN PERSONAL CARE FORMS” (The Procter & Gamble Company, priority 2020, published 2021).

System: Malassezia furfur (CBS 7982)
Test: In Vitro Antifungal Minimum Inhibitory Concentration (MIC) Testing
Type: cell-based
Details: azoxystrobin itself against Malassezia, value used in the model
Protocol: Malassezia furfur (CBS 7982) is maintained continuously as a culture at 31° C. in a 250-ml vent-capped polycarbonate Erlenmeyer flask by combining approximately 50 ml of mDixon growth medium and 2.5 ml of previously grown Malassezia culture. For each assay, Malassezia cells from 24-hour-old culture (approximately 7.5×10^8 cells/ml) are diluted 500-fold into mDixon growth medium. Micropipettes are used to transfer 295 ul of diluted cells to each well of a Beckman 267007 polypropylene round-bottom deep-well plate. Product forms are prepared for testing as concentrated stocks in water. Micropipettes are used to transfer 5 ul of appropriately diluted product form to the diluted Malassezia cells in the round-bottom deep-well plate. A semipermeable sealing film is applied to the plate which is then covered with water-soaked cotton batting. The deep-well plates are shaken at 31° C. on a Heidolph Titramax 1000 shaker at 1350 rpm for approximately 20 hours. The samples are mixed by micropipetting before transferring 200 ul of sample culture from each well to a Corning 3596 polystyrene plate. The plates are read immediately for absorbance at 600 nm using a Molecular Devices SpectraMax M5 plate reader. MIC values are presented as ppm of active.

## CO/C=C(/C(=O)OC)c1ccccc1Oc1cc(Oc2ccccc2C#N)ncn1 [Azoxystrobin]
  minimal inhibitory concentration (MIC): 0.2-0.9 ppm
